Publication PMC8877149, “A Fungal Defensin Inhibiting Bacterial Cell-Wall Biosynthesis with Non-Hemolysis and Serum Stability” (Journal of Fungi, 2022)
Where a SMILES comes first, the peptide text is derived from it. Bridges are numbered along the chain shown (N, C = ends).

Key:
S. aureus = tested on: S. aureus; design: key: “+”, activity; “-“, no activity”; conditions: Figure 6, antibacterial activity; cited from earlier work
Source text: Compared with plectasin, the natural variant Py4 has two point mutations at positions 14 and 33 (Figure 1A) that are respectively located on the α-helix (Q14K) and the C-loop (G33A) (Figure 1A). These two mutations are interesting considering their mutational effects previously reported in plectasin. (1) Position 14. […] Small dots represent identical residues to plectasin. Positions showing differences in the peptides are boxed and the mutated residues relative to plectasin are colored in red. Positions involved in intramolecular epistasis are linked by one line. The arrow points to the position accounting for differential genetic backgrounds between plectasin and Py4. […] “+”, activity; “-“, no activity”. TEXT PRINTED IN THE PICTURE: Ple ...

[1] = Serum stability assay (residual activity by inhibition-zone assay); assay type: in vitro ADME; conditions: undiluted fresh mouse serum, 37 °C, read-out inhibition zone on B. megaterium, 0.2 nmol/well, ns vs 0 h
Method: (§1) Hemolytic activity of peptides against fresh erythrocytes from ICR mice (Mus musculus) was assayed according to the standard method. Peptides were diluted with 0.9% NaCl to the indicated concentration. The percentage of hemolysis is determined as (Apep − Ablank)/(Atot − Ablank) × 100, in which “A” represents absorbance measured at 570 nm. Ablank and Apep were evaluated in the absence or presence of peptides. One hundred percent hemolysis (Atot) was obtained in the presence of 1% Triton X-100. For the stability assay, Py4 was incubated in H2O or fresh mouse serum for the indicated times at 37 °C and their residual activity was measured by the inhibition-zone assay.

[2] = tested on: fresh erythrocytes from ICR mice; experiment: Hemolysis assay; assay type: cell-based, Mus musculus; conditions: 3.125 to 25 µM, 2-fold serial dilutions, in 0.9% NaCl; A570; 100% = 1% Triton X-100
Method: as §1

[3] = tested on: Staphylococcus aureus CGMCC 1.89; experiment: Inhibition-zone assay, lethal concentration (CL); assay type: cell-based
Method: (§2) The inhibition-zone assay was used to quantify the antibacterial activity of Py4, as described previously. In brief, an overnight bacterial culture from a single colony was inoculated into fresh medium and grew to the late log-phase. A 10 μL aliquot of each culture was diluted in 6 mL pre-heated medium containing 0.8% agar. The mixture was spread on a 9-cm Petri dish, giving a depth of 1 mm. After settling, 3-mm wells were punched in the plate and then 2 μL peptide samples of different concentrations were added to each well. The agar plates were incubated overnight at indicated temperatures. A lethal concentration (CL) was calculated from a plot of d^2 against log n, where d is the diameter (in cm) and n is the amount of sample applied in the well (in nmol). The plot is linear and thus CL can be calculated from the slope (k) and the intercept (m) of this plot. The formula used here was CL = 2.93/ak10^m/k, where a is the thickness of the bacterial plate and CL is in μM.

[4] = tested on: Penicillin-resistant Staphylococcus epidermidis P1389; experiment: Inhibition-zone assay, lethal concentration (CL); assay type: cell-based; conditions: penicillin-resistant S. epidermidis P1389
Method: as §2

[5] = tested on: Staphylococcus aureus J698; experiment: Inhibition-zone assay, lethal concentration (CL); assay type: cell-based; conditions: S. aureus J698
Method: as §2

Curtobacterium luteum = experiment: Inhibition-zone assay, lethal concentration (CL); assay type: cell-based
Method: as §2

[6] = tested on: Staphylococcus aureus J685; experiment: Inhibition-zone assay, lethal concentration (CL); assay type: cell-based; conditions: S. aureus J685
Method: as §2

[7] = tested on: Staphylococcus warneri CGMCC 1.2824; experiment: Inhibition-zone assay, lethal concentration (CL); assay type: cell-based
Method: as §2

[8] = tested on: Methicillin-resistant coagulase negative Staphylococci P1369; experiment: Inhibition-zone assay, lethal concentration (CL); assay type: cell-based
Method: as §2

[9] = tested on: Staphylococcus aureus J706; experiment: Inhibition-zone assay, lethal concentration (CL); assay type: cell-based; conditions: S. aureus J706
Method: as §2

[10] = tested on: Methicillin-resistant Staphylococcus aureus P1374; experiment: Inhibition-zone assay, lethal concentration (CL); assay type: cell-based; conditions: methicillin-resistant S. aureus P1374
Method: as §2

[11] = tested on: Methicillin-resistant Staphylococcus aureus P1386; experiment: Inhibition-zone assay, lethal concentration (CL); assay type: cell-based; conditions: methicillin-resistant S. aureus P1386
Method: as §2

[12] = tested on: Bacillus megaterium CGMCC 1.0459; experiment: Inhibition-zone assay, lethal concentration (CL); assay type: cell-based
Method: as §2

[13] = tested on: Penicillin-sensitive Staphylococcus epidermidis P1111; experiment: Inhibition-zone assay, lethal concentration (CL); assay type: cell-based; conditions: penicillin-sensitive S. epidermidis P1111
Method: as §2

S. warneri cells = experiment: Cytoplasmic accumulation of UDP-MurNAc-pentapeptide (UMP); assay type: cell-based, Staphylococcus warneri; conditions: 130 µg/mL chloramphenicol pre-treatment 15 min, Py4 0.6 µM or vancomycin 2.0 µM, 30 min
Method: The cytoplasmic UDP-MurNAc-pentapeptide (abbreviated as UMP) accumulation experiment was carried out according to the method previously described. In brief, S. warneri cells were grown at 37 °C to an OD600 of 0.5 in 40 mL broth medium and then the culture was supplemented with 130 μg/mL chloramphenicol to impede bacterial cell proliferation by blocking their protein synthesis. After 15 min of incubation, the culture was divided into three equal portions, and one portion was treated with Py4 (0.6 μM), the second with vancomycin (2.0 μM), and the third was used as an untreated control. UMP was extracted from the harvested cells following 30 min of incubation. UMP was identified by MALDI−TOF on MALDI−TOF/TOF Ultraflextreme^TM (Bruker Daltonics, Bremen, Germany) using 2,5-dihydroxybenzoic acid (DHB) as the matrix in the negative-reflection ion mode.

[14] = tested on: Bacillus megaterium cells; experiment: Membrane permeability assay (propidium iodide fluorescence); assay type: cell-based; conditions: B. megaterium in PBS pH 7.3, 1 µM propidium iodide, peptide or vancomycin at 10 × CL, exc 525 nm / em 595 nm
Method: The membrane permeability assay was performed according to the method previously described. Meucin-18 and Meucin-49, two known scorpion venom lytic peptides, were used as positive controls and vancomycin, a known bacterial cell-wall synthesis inhibitor without membrane-disruptive ability as a negative control. Bacillus megaterium cells in 500 μL of phosphate buffered saline (PBS) (pH 7.3) were mixed with 1 μM propidium iodide (PI) for 5 min in the dark. Fluorescence was measured with the F-4500 FL spectrophotometer (Hitachi High-Tech Science Corporation, Tokyo, Japan). Once the basal fluorescence reached a constant value, peptides or vancomycin at 10 × CL were added, and changes in fluorescence arbitrary were monitored (λexc = 525 nm; λems = 595 nm).

In the case of “Plectasin (GFGCNGPWDEDDMQCHNHCKSIKGYKGGYCAKGGFVCKCY; UniProt Q53I06 56-95, looked up) [first fungal defensin found in Pseudoplectania nigrella, prototype of fungal defensin-like peptides]”, the Activity (S. aureus) is listed as “+”.
In the case of `CC[C@H](C)[C@@H]1NC(=O)[C@H](CO)NC(=O)[C@H](CCCCN)NC(=O)[C@@H]2CSSC[C@@H](C(=O)N[C@@H](Cc3ccc(O)cc3)C(=O)O)NC(=O)[C@H](CCCCN)NC(=O)[C@@H]3CSSC[C@H](NC(=O)[C@H](CCCCN)NC(=O)[C@H](CCSC)NC(=O)[C@H](CC(=O)O)NC(=O)[C@H](CC(=O)O)NC(=O)[C@H](CCC(=O)O)NC(=O)[C@H](CC(=O)O)NC(=O)[C@H](Cc4c[nH]c5ccccc45)NC(=O)[C@@H]4CCCN4C(=O)CNC(=O)[C@H](CC(N)=O)NC(=O)[C@@H](NC(=O)CNC(=O)[C@H](Cc4ccccc4)NC(=O)CN)CSSC[C@H](NC(=O)[C@H](Cc4ccc(O)cc4)NC(=O)CNC(=O)CNC(=O)[C@H](CCCCN)NC(=O)[C@H](Cc4ccc(O)cc4)NC(=O)CNC(=O)[C@H](CCCCN)NC1=O)C(=O)N[C@@H](C)C(=O)N[C@@H](CCCCN)C(=O)N[C@@H](C)C(=O)NCC(=O)N[C@@H](Cc1ccccc1)C(=O)N[C@@H](C(C)C)C(=O)N3)C(=O)N[C@@H](Cc1c[nH]cn1)C(=O)N[C@@H](CC(N)=O)C(=O)N[C@@H](Cc1c[nH]cn1)C(=O)N2` [Py4, Pyronesin4] (H-GFGCNGPWDEDDMKCHNHCKSIKGYKGGYCAKAGFVCKCY-OH; disulfide 4-30, 15-37, 19-39), the “residual antibacterial activity after incubation in serum” value ([1]; 24 h) is reported as “retained its full antibacterial activity”, the “residual antibacterial activity after incubation in serum” value ([1]; 48 h) is reported as “retained its full antibacterial activity” and the “hemolysis on mouse blood cells” value [2] is reported as “no significant hemolysis”. For the same compound, the “CL (lethal concentration)” value [3] was 1.22 µM, the “CL (lethal concentration)” value [4] was 4.38 µM and the “CL (lethal concentration)” value [5] was 2.69 µM. For the same compound, the “CL (lethal concentration)” value (Curtobacterium luteum) was 0.03 µM, the “CL (lethal concentration)” value [6] was 2.69 µM and the “CL (lethal concentration)” value [7] was 1.06 µM. The “CL (lethal concentration)” value [8] was 4.78 µM, the “CL (lethal concentration)” value [9] was 2.51 µM and the “CL (lethal concentration)” value [10] was 2.69 µM. For the same compound, the “CL (lethal concentration)” value [11] was 2.51 µM, the “CL (lethal concentration)” value [12] was 0.67 µM and the “CL (lethal concentration)” value [13] was 4.03 µM.
With `CN[C@H](CC(C)C)C(=O)N[C@H]1C(=O)N[C@@H](CC(N)=O)C(=O)N[C@H]2C(=O)N[C@H]3C(=O)N[C@H](C(=O)N[C@H](C(=O)O)c4cc(O)cc(O)c4-c4cc3ccc4O)[C@H](O)c3ccc(c(Cl)c3)Oc3cc2cc(c3O[C@@H]2O[C@H](CO)[C@@H](O)[C@H](O)[C@H]2O[C@H]2C[C@](C)(N)[C@H](O)[C@H](C)O2)Oc2ccc(cc2Cl)[C@H]1O` [vancomycin] the “cytoplasmic accumulation of UMP (RP-HPLC peak, MALDI-TOF identified)” value (S. warneri cells) was “common emerging peak” and the “membrane-disruptive activity (PI fluorescence increase)” value [14] was “no obvious fluorescent increase”.
